Assays:
[1] = biological target: T1, ATPase family AAA domain-containing protein 2 (Homo sapiens, UniProt Q6PL18); experiment: Inhibition of human ATAD2A (981 to 1108 residues) expressed in Escherichia coli BL21 after 1 hr by BROMOscan assay
T1 sequence (Q6PL18 whole entry): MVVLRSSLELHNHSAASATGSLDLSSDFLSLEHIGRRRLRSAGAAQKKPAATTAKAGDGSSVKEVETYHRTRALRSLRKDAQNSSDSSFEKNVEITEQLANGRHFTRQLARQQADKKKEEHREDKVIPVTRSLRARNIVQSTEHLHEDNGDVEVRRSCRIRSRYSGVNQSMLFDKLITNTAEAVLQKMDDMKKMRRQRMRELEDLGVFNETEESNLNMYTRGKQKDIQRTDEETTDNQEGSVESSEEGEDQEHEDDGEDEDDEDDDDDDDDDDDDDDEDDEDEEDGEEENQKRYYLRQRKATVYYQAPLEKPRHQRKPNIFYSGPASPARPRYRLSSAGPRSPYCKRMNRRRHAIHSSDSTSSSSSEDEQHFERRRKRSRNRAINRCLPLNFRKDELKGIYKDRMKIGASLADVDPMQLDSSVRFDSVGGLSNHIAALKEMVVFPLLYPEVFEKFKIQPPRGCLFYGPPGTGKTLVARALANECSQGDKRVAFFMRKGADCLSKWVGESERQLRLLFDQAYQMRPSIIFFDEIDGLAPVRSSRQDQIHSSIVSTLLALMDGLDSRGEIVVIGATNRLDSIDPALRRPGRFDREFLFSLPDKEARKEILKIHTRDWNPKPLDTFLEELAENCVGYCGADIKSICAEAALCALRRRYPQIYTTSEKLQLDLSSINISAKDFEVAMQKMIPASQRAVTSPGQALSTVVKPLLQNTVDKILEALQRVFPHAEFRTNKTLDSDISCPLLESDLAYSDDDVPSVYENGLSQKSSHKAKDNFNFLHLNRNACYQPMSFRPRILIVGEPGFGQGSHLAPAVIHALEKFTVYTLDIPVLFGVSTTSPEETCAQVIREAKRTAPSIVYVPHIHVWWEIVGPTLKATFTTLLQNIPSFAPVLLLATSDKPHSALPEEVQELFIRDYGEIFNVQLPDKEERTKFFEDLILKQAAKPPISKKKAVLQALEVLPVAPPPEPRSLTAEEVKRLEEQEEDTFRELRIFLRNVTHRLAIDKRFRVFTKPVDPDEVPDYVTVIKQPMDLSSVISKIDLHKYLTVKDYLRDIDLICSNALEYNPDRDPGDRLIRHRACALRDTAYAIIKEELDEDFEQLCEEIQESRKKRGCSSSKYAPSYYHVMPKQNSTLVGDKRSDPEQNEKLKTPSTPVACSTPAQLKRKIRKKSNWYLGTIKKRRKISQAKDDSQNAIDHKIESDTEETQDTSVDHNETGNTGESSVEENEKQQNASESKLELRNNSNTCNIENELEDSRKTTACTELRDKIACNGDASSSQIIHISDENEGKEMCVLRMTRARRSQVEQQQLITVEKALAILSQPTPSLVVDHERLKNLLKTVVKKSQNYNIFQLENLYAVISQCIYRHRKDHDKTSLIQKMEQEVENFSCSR

[2] = biological target: Bromodomain-containing protein 4 (Homo sapiens, UniProt O60885); experiment: Inhibition of human BRD4 bromodomain 1 (unknown origin) by Alexa Fluor 647-JQ1 probe-based fluoresence polarization competition assay
[3] = Oral bioavailability in CD1 mouse at 3 mg/kg by UPLC-MS/MS analysis; type: ADME, organism-based; details: in vivo
[4] = Apparent permeability across apical to basolateral side in human Caco2 cells at 10 uM after 2 hrs by LC-MS/MS analysis; type: ADME, cell-based; details: Caco-2
[5] = tested on: NCI-H1703; experiment: Inhibition of cell proliferation of human NCI-H1703 cells after 72 hrs by MTS assay; type: functional; details: NCI-H1703, 72 h

In the case of `COc1cc(C#N)ccc1S(=O)(=O)Nc1ccc2c(c1)cc(C)c(=O)n2C`, the IC50 [1] is reported as > 100 µM, the IC50 [2] is reported as > 33 µM and the bioavailability [3] is reported as 29%. It also gave a Papp A→B at 2 h, 10 µM [4] of 11 ×10⁻⁶ cm/s and a GI50 [5] of 10.4 µM.
